{"source": "paper PMC8599861", "about": "“Structures of prokaryotic ubiquitin-like protein Pup in complex with depupylase Dop reveal the mechanism of catalytic phosphate formation” (Nature Communications, 2021)", "key": {"[1]": {"target": "T1, AcelDop (in complex with AcelPup deltaN43) (Acidothermus cellulolyticus, UniProt A0LU48)", "T1 construct": "gene dop; C-terminal TEV-His6 tag cleaved, E. coli Rosetta (DE3); Pup fragment deltaN43 (PupQ, PupE or PupBSO) synthetic; with Prokaryotic ubiquitin-like protein Pup", "T1 sequence (A0LU49 44-71 E71Q)": "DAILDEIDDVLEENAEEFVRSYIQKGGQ", "T1 sequence (A0LU48 whole entry, the tested form may be a part)": "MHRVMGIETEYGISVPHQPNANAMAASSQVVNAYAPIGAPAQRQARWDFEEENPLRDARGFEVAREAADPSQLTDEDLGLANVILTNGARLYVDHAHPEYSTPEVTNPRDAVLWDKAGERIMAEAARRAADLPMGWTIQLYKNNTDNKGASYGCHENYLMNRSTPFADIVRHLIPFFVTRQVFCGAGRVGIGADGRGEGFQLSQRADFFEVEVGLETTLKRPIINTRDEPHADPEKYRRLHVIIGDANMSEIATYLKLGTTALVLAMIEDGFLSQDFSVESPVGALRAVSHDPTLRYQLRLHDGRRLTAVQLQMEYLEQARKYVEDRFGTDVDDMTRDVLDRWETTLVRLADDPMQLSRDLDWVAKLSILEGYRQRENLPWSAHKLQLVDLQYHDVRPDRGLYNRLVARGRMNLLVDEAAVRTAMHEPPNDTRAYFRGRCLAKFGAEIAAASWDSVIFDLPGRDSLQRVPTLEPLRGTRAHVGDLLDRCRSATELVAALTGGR", "assay": "X-ray crystal structures, […]-1.[…] A", "type": "binding", "conditions": "with PupE deltaN43 and MgF3(H2O)- (7OYF), phosphorylated PupE, Mg2+/K+ (7OY3; ADP formed in crystal soaked with ATP) or MgF4 2- (7OYH); nucleotide site"}, "[2]": {"target": "T1, AcelDop (in complex with AcelPup deltaN43)", "assay": "X-ray crystal structure, […] A", "type": "binding", "conditions": "co-crystal with PupQ deltaN43 and Mg2+; nucleotide site, about 72 % occupancy"}, "[3]": {"target": "T1, AcelDop (in complex with AcelPup deltaN43)", "assay": "intact mass spectrometry of phosphorylated PupBSO", "type": "biochemical", "conditions": "2 mM ATP, PupBSO deltaN43 as phosphoryl acceptor, 20 mM MgCl2, pH 8.0, 30 C"}}, "data": [{"smiles": "Nc1ncnc2c1ncn2[C@@H]1O[C@H](COP(=O)(O)OP(=O)(O)O)[C@@H](O)[C@H]1O", "note": "[ADP]", "values": [{"measurement": "X-ray crystal structures, 1.75-1.88 A", "setting": "[1]", "value": "We solved the structure of a Dop-Pup complex with a square planar MgFx species bound between ADP and Pup"}]}, {"smiles": "Nc1ncnc2c1ncn2[C@@H]1O[C@H](COP(=O)(O)OP(=O)(O)CP(=O)(O)O)[C@@H](O)[C@H]1O", "note": "[AMP-PCP]", "values": [{"measurement": "X-ray crystal structure, 1.65 A", "setting": "[2]", "value": "crystals of the enzyme in complex with the PupQ fragment and AMP-PCP"}]}, {"smiles": "Nc1ncnc2c1ncn2[C@@H]1O[C@H](COP(=O)(O)OP(=O)(O)OP(=O)(O)O)[C@@H](O)[C@H]1O", "note": "[ATP]", "values": [{"measurement": "intact mass spectrometry of phosphorylated PupBSO", "setting": "[3]", "value": "Dop indeed forms a phosphorylated PupBSO species in the presence of ATP"}]}]}
